This is an account of results in US20260115190A1, “DISPERSIONS OF ETRUMADENANT” (Arcus Biosciences, Inc., priority 2022, published 2026).

For data set [1], the system named is CYP3A4, CYP2C8, and uridine 5′-diphospho glucuronosyltransferase (UGT) enzyme isoforms. Description: In vitro metabolism of etrumadenant. The note with it: in vitro data. Format: in vitro ADME.
Data set [2] concerns the target T1, breast cancer resistance protein (BCRP) (Homo sapiens, UniProt Q9UNQ0).
T1 sequence (Q9UNQ0 1-655): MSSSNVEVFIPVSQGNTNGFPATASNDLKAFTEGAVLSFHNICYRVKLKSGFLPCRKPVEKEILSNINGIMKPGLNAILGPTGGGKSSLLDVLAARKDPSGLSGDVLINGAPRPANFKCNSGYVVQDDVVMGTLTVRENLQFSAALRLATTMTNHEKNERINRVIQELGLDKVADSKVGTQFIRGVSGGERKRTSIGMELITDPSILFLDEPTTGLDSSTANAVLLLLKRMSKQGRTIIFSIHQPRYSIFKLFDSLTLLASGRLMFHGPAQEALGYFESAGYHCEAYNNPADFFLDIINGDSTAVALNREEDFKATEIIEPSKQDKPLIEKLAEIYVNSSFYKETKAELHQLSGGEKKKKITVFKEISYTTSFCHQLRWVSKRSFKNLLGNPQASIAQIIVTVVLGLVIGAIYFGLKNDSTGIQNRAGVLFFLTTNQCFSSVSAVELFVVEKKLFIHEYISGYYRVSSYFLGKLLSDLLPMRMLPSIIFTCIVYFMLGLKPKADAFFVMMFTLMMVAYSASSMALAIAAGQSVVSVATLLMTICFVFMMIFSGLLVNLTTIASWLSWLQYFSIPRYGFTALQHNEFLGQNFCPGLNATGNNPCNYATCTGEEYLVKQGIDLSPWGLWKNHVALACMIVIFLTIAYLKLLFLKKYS
Description: In vitro transporter substrate data (BCRP). Format: in vitro ADME.

Data set [3] is described as follows: Thermal analysis by MDSC (Tg). Format: physicochemical. As to conditions: amorphous etrumadenant made by melt quenching; one experiment. As to the method: Thermal Properties. Thermal properties were measured using a TA Instruments Discovery DSC2500 DSC equipped with a TA instruments Refrigerated Cooling System 90 operating in modulated mode. Briefly, bulk drug substance was analyzed by standard DSC with a heating rate of 10° C. per minute ramping up to 220° C. Amorphous etrumadenant was created from the starting drug substance by rapidly melt quenching using liquid N2 and then analyzed by modulated DSC (MDSC). Events monitored include the glass transition temperature (Tg), cold crystallization (Tc), defined as a crystallization event at a temperature lower than the melt temperature, and melting temperature (Tm). In one experiment, the thermal properties were as follows: Tg=69° C.; Tc=no crystallization up to 220° C.; Tm=192° C. Minor lot-to-lot variation may occur.

Data set [4] can be described thus: Phase 1 relative bioavailability (capsule v. tablet) and food effect study. The data set is classed as in vivo, human. From the text:
This example describes a Phase 1 study to compare the single-dose PK of an etrumadenant tablet versus an etrumadenant capsule, in healthy adult participants (19-55 years of age), and to evaluate the effect of food on the single-dose PK of etrumadenant tablet, in healthy adult participants.
The study was an open-label, randomized, 3-treatment, 3 period crossover study to evaluate the relative bioavailability (BA) of etrumadenant tablet and capsule formulations and the effect of food on the tablet formulation. On Day 1 of each period, a single dose of etrumadenant was administered in a 3-period crossover fashion. Participants (n=24) received etrumadenant capsules under fasting (Treatment A) conditions and etrumadenant tablets under fasting (Treatment B) and fed (high-fat meal; Treatment C) conditions. PK samples for etrumadenant and its metabolites were taken predose and up to 120 hours post dose. There was a washout of at least 7 days between the etrumadenant doses. All participants who received at least one dose of etrumadenant (including participants who terminate the study early) were asked to return to the Clinical Research Unit (CRU) 14 (+2) days after the last dose for follow-up procedures, and to determine if any adverse event (AE) has occurred since the last study visit.
Study treatments are described as follows. […]
Additional PK parameters were calculated if deemed appropriate. […]

Another data set addresses T2, A2BR (Homo sapiens, UniProt P29275).
T2 sequence (P29275 1-332): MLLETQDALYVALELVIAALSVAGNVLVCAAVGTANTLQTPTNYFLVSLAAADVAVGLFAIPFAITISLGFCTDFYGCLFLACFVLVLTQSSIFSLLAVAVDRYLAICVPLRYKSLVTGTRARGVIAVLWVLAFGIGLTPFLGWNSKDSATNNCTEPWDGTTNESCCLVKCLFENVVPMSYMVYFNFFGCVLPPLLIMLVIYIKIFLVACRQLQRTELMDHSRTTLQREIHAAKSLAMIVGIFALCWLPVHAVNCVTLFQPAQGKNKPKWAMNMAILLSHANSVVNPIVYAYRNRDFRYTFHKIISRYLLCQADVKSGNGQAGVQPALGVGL
As to conditions: antagonist; has been reported; cited from earlier work.

As to `Cc1c(C#N)cccc1-c1cc(-c2cn(Cc3cccc(C(C)(C)O)n3)nn2)nc(N)n1` [Etrumadenant, 3-[2-amino-6-(1-{[6-(2-hydroxypropan-2-yl)pyridine-2-yl]methyl}-1H-1,2,3-triazol-4-yl)pyrimidin-4-yl]-2-methylbenzonitrile], the “etrumadenant metabolism mediated by” value in data set [1] is “mediated by CYP3A4, CYP2C8, and uridine 5′-diphospho glucuronosyltransferase (UGT) enzyme isoforms”. For the same molecule, in data set [2], the “substrate of breast cancer resistance protein (BCRP)” value is on record as “substrate”. Further, the “glass transition temperature (Tg)” value in data set [3] worked out at 69 °C. For the same molecule, the “Cmax, AUC and Tmax in capsules and tablets” value in data set [4] (150 mg, fasting) is reported as “statistically equivalent”. Besides, the “effect of fed conditions on overall exposure (AUClast and AUCINF) compared to fasting condition” value in data set [4] (tablet 150 mg) was “no effect”. Further, on A2BR, the “potency on A2BR” value was “less than 10 nM”.
